# From patent publication US20230277573A1, “OLIGOSACCHARIDE COMPOSITIONS AND METHODS OF USE” (DSM Nutritional Products, LLC, priority 2020, published 2023)
# System: western diet (WD)-induced obese low density lipoprotein receptor knock-out (ldlr−/−) mouse model
# Assay: Western diet (WD)-induced obese ldlr−/− mouse model: blood, liver, aorta and body weight readouts
# Format: in vivo
# Details: WD-fed ldlr−/− mice, 16 wk, fenofibrate 100 mg/kg/day
# Protocol: The therapeutic and microbiome effects of the selected oligosaccharide composition were tested in a validated western diet (WD)-induced obese low density lipoprotein receptor knock-out (ldlr^−/−) mouse model, thought to recapitulate a number of metabolic pathologies found in humans, including obesity, hyperglycemia, glucose intolerance, hyperinsulinemia, insulin resistance, severe hypercholesterolemia, hypertriglyceridemia, atherosclerosis, hepatic steatosis and hepatic inflammation. […]
# 9-11 weeks old male C57BL/6J ldlr^−/− mice were split into one of four treatment groups (12 animals per group, 4 animals per cage)—(1) no treatment (NT), (2) the selected oligosaccharide (as produced by the process described in Example 2), (3) a glucose/galactose-based oligosaccharide composition and (4) fenofibrate—for 16 weeks. […] The body weight for each animal was measured prior to the treatment period and weekly over the treatment period. 4-day food intake for each cage was measured weekly over the treatment period and averaged as food intake per mouse per day. […] For each animal, separate liver sections (˜100 mg each) were collected and frozen for the quantification of hepatic TG and hepatic TC. […] The aortic arch was surface stained with oil red O for the quantification of atherosclerotic plaque surface area.
smiles,measurement,setting,value
"CC(C)OC(=O)C(C)(C)Oc1ccc(C(=O)c2ccc(Cl)cc2)cc1 [fenofibrate, Fenofibrate]",effect on food intake,OS 7.5% w/w in diet,no effect
same,"body weight gain lowered by, compared to NT",,44%
